Legend:
[1] = target: elastase from Pseudomonas aeruginosa (Pseudomonas aeruginosa, UniProt P14756); experiment: in vitro; conditions: for RRT 0.66 degradation fragment, normalized peak area / RRT 0.88 degradation fragment, normalized peak area: elastase:peptide approx. 1:2500, 37° C.
Procedure: (§1) In this study we compared the enzymatic degradation rate of LL-37 in an aqueous buffered system to that of a colloidal solution of LL-37 in a galactolipid complex. The experimental procedures for enzymatic degradation were essentially as described using a reverse phase HPLC system (C-18) operating at 210 nm.
(§2) In brief: Two stock solutions A and B were prepared. Solution A, “the reference”, contained 100 μg/ml of LL-37 in PBS, pH 7.4. Solution B, “the complex”, contained in addition to 100 μg/ml LL-37 in PBS, pH 7.4, 0.2% of galactolipids (w/w). Two sets of samples were prepared in Eppendorf tubes, 8 tubes from each stock solution. […] The reactions were kept at 37° C. and samples were withdrawn at predetermined intervals. The reactions were stopped by heating the samples to 100° C. for 5 minutes. After stopping, the reactions were stored at −18° C. prior analysis.
(§3) All samples were analysed in duplicates and the peak area for LL-37 was normalized to that of the negative control, which was set to 1.00. Retention times are given as relative retention time (RRT) to LL-37, which is set to RRT=1.00.

[2] = tested on: elastase from Pseudomonas aeruginosa; experiment: in vitro; conditions: isolated enzyme elastase, pH 7.4
Procedure: as §1, §2, §3

[3] = Ocular inspection of appearance of aqueous peptide/CPL-Galactolipid mixtures; format: physicochemical; conditions: after 2 h and 2 days of storage at room temperature; 0.20% CPL-Galactolipid; LL-25 68-98 ppm, LL-37 98-213 ppm, LL-38 50-102 ppm, LL-20 52-98 ppm
Procedure: To prepare the solution of the complex the peptide and CPL-Galactolipid are weighed in a 100 ml glass flask and then PBS (10 mM sodium phosphate, 150 mM NaCl, pH 7.4) is added. The sample is vigorously shaken, using a suitable shaker at high speed, for 1-2 h or until the mixture has become clear, and is then allowed to equilibrate and settle for about 30 min at room temperature. Samples of LL-20, LL-25, LL-37 and LL-38 as trifluoroacetate salts and CPL-Galactolipid were prepared using the amounts stated in Table 1 below. The peptide mixtures all contained 0.20% CPL-Galactolipid.
Ocular inspections were made after 2 h and 2 days of storage at room temperature of the mixtures. […] The molecular weight of LL-20 was calculated to be 2.4 kDa.

Bacillius megaterium = experiment: Inhibition zone assay of antimicrobial activity; format: cell-based; conditions: complex with CPL-Galactolipid; LL-25 at 68 ppm
Procedure: Test of antimicrobial activity of LL-20 and LL-25 complexes The antimicrobial activity was tested using an inhibition zone assay. As a test bacterium, Bacillius megaterium was used.

[4] = at certain weight ratios; cited from earlier work
[5] = when complexed with galactolipids; cited from earlier work

Sequence of elastase from Pseudomonas aeruginosa (Pseudomonas aeruginosa, UniProt P14756) (P14756 198-498): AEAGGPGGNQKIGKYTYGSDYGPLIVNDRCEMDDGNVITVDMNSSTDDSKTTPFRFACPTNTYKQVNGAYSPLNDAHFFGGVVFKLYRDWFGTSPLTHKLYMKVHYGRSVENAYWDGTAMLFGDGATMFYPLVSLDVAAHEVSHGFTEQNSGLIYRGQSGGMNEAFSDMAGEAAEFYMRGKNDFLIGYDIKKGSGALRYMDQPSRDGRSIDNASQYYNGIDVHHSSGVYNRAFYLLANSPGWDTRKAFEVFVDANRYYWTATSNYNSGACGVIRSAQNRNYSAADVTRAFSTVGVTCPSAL

Molecule: CC[C@H](C)[C@H](NC(=O)[C@H](CCCCN)NC(=O)[C@H](CCC(=O)O)NC(=O)[C@H](CCCCN)NC(=O)[C@H](CO)NC(=O)[C@H](CCCCN)NC(=O)[C@H](CCCNC(=N)N)NC(=O)[C@H](Cc1ccccc1)NC(=O)[C@H](Cc1ccccc1)NC(=O)[C@H](CC(=O)O)NC(=O)CNC(=O)[C@H](CC(C)C)NC(=O)[C@@H](N)CC(C)C)C(=O)NCC(=O)N[C@@H](CCCCN)C(=O)N[C@@H](CCC(=O)O)C(=O)N[C@@H](Cc1ccccc1)C(=O)N[C@@H](CCCCN)C(=O)N[C@@H](CCCNC(=N)N)C(=O)N[C@H](C(=O)N[C@H](C(=O)N[C@@H](CCC(N)=O)C(=O)N[C@@H](CCCNC(=N)N)C(=O)N[C@H](C(=O)N[C@@H](CCCCN)C(=O)N[C@@H](CC(=O)O)C(=O)N[C@@H](Cc1ccccc1)C(=O)N[C@@H](CC(C)C)C(=O)N[C@@H](CCCNC(=N)N)C(=O)N[C@@H](CC(N)=O)C(=O)N[C@@H](CC(C)C)C(=O)N[C@H](C(=O)N1CCC[C@H]1C(=O)N[C@@H](CCCNC(=N)N)C(=O)N[C@H](C(=O)N[C@@H](CCC(=O)O)C(=O)N[C@@H](CO)C(=O)O)[C@@H](C)O)C(C)C)[C@@H](C)CC)C(C)C)[C@@H](C)CC [LL-37 in aqueous buffer]
- RRT 0.66 degradation fragment, normalized peak area ([1]; 1 min): 0.1
- RRT 0.88 degradation fragment, normalized peak area ([1]; 1 min): 0.4
- RRT 0.66 degradation fragment, normalized peak area ([1]; 5 min): 0.14
- RRT 0.88 degradation fragment, normalized peak area ([1]; 5 min): 0.36
- RRT 0.66 degradation fragment, normalized peak area ([1]; 15 min): 0.27
- RRT 0.88 degradation fragment, normalized peak area ([1]; 15 min): 0.04
- RRT 0.66 degradation fragment, normalized peak area ([1]; 30 min): 0.54
- RRT 0.66 degradation fragment, normalized peak area ([1]; 1 h): 0.46
- RRT 0.66 degradation fragment, normalized peak area ([1]; 4 h): 0.31
- RRT 0.66 degradation fragment, normalized peak area ([1]; 20 h): 0.08
- Degradation when treated with elastase ([1]; elastase from Pseudomonas aeruginosa, 37° C., up to 20 h): rapidly degraded
- RRT 1.00 (LL-37) peak area normalized to negative control (1.00) ([1]; time 0, 100 μg/ml LL-37, PBS pH 7.4, 37° C.): 1.00
- remaining at 1 min, 100 μg/ml [2]: 30%
- remaining at 5 min, 100 μg/ml [2]: 23%

Molecule: LLGDFFRKSKEKIGKEFKRIVQRIK [LL-25]
- Ocular inspection of the mixtures [3]: clear or almost clear solutions
- Antimicrobial activity (Bacillius megaterium): showed an antimicrobial activity

Molecule: LLGDFFRKSKEKIGKEFKRIVQRIKDFLRNLVPRTES [LL-37]
- Ocular inspection of the mixtures [3]: clear or almost clear solutions
- Formation of colloidal solutions with galactolipids [4]: formed stable, clear colloidal solutions
- In vitro cytotoxicity [5]: reduced

Molecule: LLGDFFRKSKEKIGKEFKRIVQRIKDFLRNLVPRTESS [LL-38]
- Ocular inspection of the mixtures [3]: clear or almost clear solutions

— patent US20080058249A1, “Complexes” (Lipopeptide AB, priority 2004, published 2008)
